# Earlier results in patent US20240315972A1, “PROTEIN CONTAINING BIO-ACTIVE COMPOSITIONS COMPRISING CELLULOSE MICROPARTICLE CARRIERS” (priority 2021, published 2024).
# How the values were obtained:
# [1] = test system: large native proteins; conditions: versus its mesophilic analogue
# [2] = test system: herpes simplex virus type 1 (HSV-1); conditions: in vitro
# [3] = test system: respiratory syncytial virus (RSV); conditions: in vitro
# [4] = test system: interferon (IFN) signaling; conditions: 5 BAEE U/mL (4.5 μg/mL porcine trypsin)
substance,measurement,setting,value
Trypsin,Effectiveness in degrading large native proteins relative to mesophilic analogue,[1],3-12 times
same,Efficacy against HSV-1,[2],high efficacy
same,Efficacy against RSV,[3],high efficacy
same,Effect on interferon (IFN) signaling,[4],strongly inhibited
